Experiment: xn = mol fraction of the nth substance listed

O=Cc1ccccc1 + c1ccccc1
viscosity [mPa·s], 101 kPa
Conditions	x1 = 0.1	x1 = 0.2	x1 = 0.4	x1 = 0.5	x1 = 0.6
298.15 K	0.655	0.714	0.847	0.928	1.012
308.15 K	0.583	0.625	0.742	0.809	0.885
318.15 K	0.509	0.551	0.667	0.711	0.773
323.15 K	0.477	0.517	–	0.665	0.724

CC(O)C(C)O (centres undefined) + O
viscosity [mPa·s]
Conditions	303.15 K	308.15 K	313.15 K	318.15 K	323.15 K
101 kPa, x1 = 0.01	0.943	0.842	0.759	0.69	0.632
101 kPa, x1 = 0.0199	1.108	0.982	0.877	0.792	0.719
101 kPa, x1 = 0.03	1.294	1.138	1.01	0.905	0.816
101 kPa, x1 = 0.0399	1.506	1.312	1.155	–	0.919
101 kPa, x1 = 0.0499	1.733	1.498	1.308	1.155	1.028
101 kPa, x1 = 0.0601	1.985	1.7	1.471	1.292	1.145
101 kPa, x1 = 0.0699	2.242	1.91	1.649	1.436	1.264
101 kPa, x1 = 0.08	2.53	2.135	1.826	1.586	1.39
101 kPa, x1 = 0.0899	2.79	2.345	1.998	1.724	1.503
101 kPa, x1 = 0.1	3.084	2.571	2.182	1.868	1.622
101.3 kPa, x1 = 0.1176	–	3.174	2.627	2.203	–
101.3 kPa, x1 = 0.2307	–	6.873	5.405	4.363	–
101.3 kPa, x1 = 0.3181	–	10.06	7.822	6.198	–
101.3 kPa, x1 = 0.4443	–	15.66	11.92	9.192	–
101.3 kPa, x1 = 0.5311	–	20.41	15.17	11.64	–
101.3 kPa, x1 = 0.6427	–	27.5	20.24	15.02	–
101.3 kPa, x1 = 0.8275	–	41.68	29.62	21.32	–
101.3 kPa, x2 = 0.3539	–	12.95	–	–	–

[Br-].[Br-].[Br-].[Br-].[Sn+4] + Oc1ccccc1
313.15 K, 101 kPa
Conditions	viscosity [mPa·s]
x1 = 0.1	4.21
x1 = 0.2	3.817
x1 = 0.3	3.351
x1 = 0.4	3.034
x1 = 0.5	2.762
x1 = 0.6	2.56
x1 = 0.7	2.387
x1 = 0.8	2.262
x1 = 0.9	2.137

CCCCCCCCCCCCO + CCCCCCO
viscosity [mPa·s], 101.8 kPa
Conditions	x2 = 0.1701	x2 = 0.4377	x2 = 0.6449	x2 = 0.8097	x2 = 0.9429
298.15 K	14.45	10.7	8.172	6.334	5.053
308.15 K	9.897	7.517	5.841	4.64	3.754
318.15 K	6.978	5.411	4.279	3.455	2.829

O=Cc1ccccc1 + ClCCCl
viscosity [mPa·s], 101 kPa
Conditions	x1 = 0.3909	x1 = 0.8163	x1 = 0.8165	x1 = 0.9064
293.15 K	1.085	1.445	–	–
303.15 K	–	–	1.225	1.285

Cc1ccc(S(=O)(=O)[O-])cc1.[Na+] + O
viscosity [mPa·s], 101 kPa
Conditions	x1 = 9e-05	x1 = 0.00018	x1 = 0.0009	x1 = 0.0018	x1 = 0.00448	x1 = 0.00893	x1 = 0.0133	x1 = 0.0177
298.15 K	0.899	0.9	0.916	0.941	1.002	1.113	1.235	1.368
318.15 K	0.598	0.599	0.609	0.626	0.661	0.728	0.799	0.879

CCCCCCCCCCCCO + C=CC(=O)OCCCC
viscosity [mPa·s], 101.3 kPa
Conditions	x2 = 0.075	x2 = 0.2149	x2 = 0.2782	x2 = 0.3968	x2 = 0.5042	x2 = 0.7015	x2 = 0.7849	x2 = 0.8614	x2 = 0.9327	x2 = 0.9651
298.15 K	12.42	7.842	6.982	4.373	3.244	1.769	1.376	1.197	0.983	0.858
308.15 K	8.748	5.789	4.807	3.38	2.459	1.409	1.135	1.004	0.86	0.732

From the CheMixHub viscosity set
